In article PMC6625639 (Biochemical pharmacology, 2018):

Key:
SULT2A1 = molecular target: T1, SULT2A1 (Homo sapiens, UniProt Q06520); assay type: biochemical
T1 sequence (Q06520 1-285): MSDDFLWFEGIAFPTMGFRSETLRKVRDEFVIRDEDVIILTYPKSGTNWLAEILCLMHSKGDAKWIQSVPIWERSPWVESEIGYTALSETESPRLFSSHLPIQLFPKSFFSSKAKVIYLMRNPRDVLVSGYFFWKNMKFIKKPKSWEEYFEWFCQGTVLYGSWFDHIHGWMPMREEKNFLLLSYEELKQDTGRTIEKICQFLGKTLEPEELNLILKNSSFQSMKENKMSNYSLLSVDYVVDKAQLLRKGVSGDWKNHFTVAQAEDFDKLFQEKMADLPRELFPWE

SULT1A1 = SULT1A1 (Homo sapiens, UniProt P50225); assay type: biochemical
Chain of SULT1A1 (P50225 whole entry): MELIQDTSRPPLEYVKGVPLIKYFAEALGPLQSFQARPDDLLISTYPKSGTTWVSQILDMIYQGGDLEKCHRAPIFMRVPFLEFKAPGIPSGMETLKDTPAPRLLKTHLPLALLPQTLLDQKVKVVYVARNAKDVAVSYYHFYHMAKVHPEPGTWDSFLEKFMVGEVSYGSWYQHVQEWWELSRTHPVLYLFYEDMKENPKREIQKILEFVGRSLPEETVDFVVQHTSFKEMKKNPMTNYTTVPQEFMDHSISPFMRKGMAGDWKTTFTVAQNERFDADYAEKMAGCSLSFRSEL

Ki (SULT2A1): 14 µM
Ki (SULT1A1): 0.027 µM
Compound: Cc1cccc(Nc2ccccc2C(=O)O)c1C [Mef, Mefenamic acid]
